In PubChem BioAssay (NCI):
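Test compounds were applied to cells in 96-well plates for 48 hours at 5 doses. TGI: concentration producing complete growth inhibition.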

What was measured:
Assay in all cases: NCI tumour cell line growth inhibition, 48 h
A549 NSCLC = tested on: A549 NSCLC
IGROV1 ovarian = tested on: IGROV1 ovarian
KM12 colon = tested on: KM12 colon
HL-60(TB) leukemia = tested on: HL-60(TB) leukemia
SK-MEL-2 melanoma = tested on: SK-MEL-2 melanoma
NCI-H23 lung = tested on: NCI-H23 lung
SK-MEL-5 melanoma = tested on: SK-MEL-5 melanoma
SNB-75 CNS = tested on: SNB-75 CNS
SF-268 CNS = tested on: SF-268 CNS
HT29 colon = tested on: HT29 colon
HOP-62 NSCLC = tested on: HOP-62 NSCLC
OVCAR-5 ovarian = tested on: OVCAR-5 ovarian
SR leukemia = tested on: SR leukemia
COLO 205 colon = tested on: COLO 205 colon
UACC-62 melanoma = tested on: UACC-62 melanoma
MALME-3M melanoma = tested on: MALME-3M melanoma
OVCAR-8 ovarian = tested on: OVCAR-8 ovarian
EKVX NSCLC = tested on: EKVX NSCLC

SMILES	TGI (A549 NSCLC) [µM]	TGI (IGROV1 ovarian) [µM]	TGI (KM12 colon) [µM]	TGI (HL-60(TB) leukemia) [µM]	TGI (SK-MEL-2 melanoma) [µM]	TGI (NCI-H23 lung) [µM]	TGI (SK-MEL-5 melanoma) [µM]	TGI (SNB-75 CNS) [µM]	TGI (SF-268 CNS) [µM]	TGI (HT29 colon) [µM]	TGI (HOP-62 NSCLC) [µM]	TGI (OVCAR-5 ovarian) [µM]	TGI (SR leukemia) [µM]	TGI (COLO 205 colon) [µM]	TGI (UACC-62 melanoma) [µM]	TGI (MALME-3M melanoma) [µM]	TGI (OVCAR-8 ovarian) [µM]	TGI (EKVX NSCLC) [µM]
CCOC(=O)c1c(C(F)(F)F)oc2c1ccc1nc3nonc3nc12	35	55.7	51.3	32.5	33.8	18.3	26.7	30	38.6	28.9	18.9	31.6	17.7	55.1	29.1	32	30.4	33.3
CCCCCn1cnc2c1S(=O)(=O)N(C)C(NC(=O)c1ccccc1)=N2	> 100	> 100	> 100	> 100	> 100	> 100	> 100	> 100	> 100	> 100	> 100	–	> 100	> 100	> 100	–	> 100	> 100
O=C1C2Nc3ccccc3SC2C(=O)N1c1cccc([N+](=O)[O-])c1 (configuration not stated)	> 100	> 100	> 100	> 100	> 100	> 100	> 100	> 100	> 100	> 100	> 100	> 100	> 100	> 100	> 100	> 100	> 100	> 100
Cn1c2c(cc(-c3ccccc3)c1=O)COc1ccccc1-2	> 100	> 100	29	56.1	30.4	> 100	39.9	> 100	> 100	47.1	> 100	54.1	> 100	> 100	28.9	50.8	> 100	> 100
COc1cc(C2C(Cl)C(=O)N2NC(=O)Cc2ccccc2)ccc1O (configuration not stated)	> 100	> 100	> 100	80.7	> 100	> 100	> 100	> 100	> 100	> 100	> 100	> 100	83.4	> 100	> 100	> 100	> 100	> 100
C[N+](C)(Cc1ccc(NC(=O)CCCC(=O)ON2C(=O)CCC2=O)cc1)c1ccccc1	2.08	–	> 100	> 100	> 100	> 100	–	2.42	3.93	> 100	–	< 0.01	< 0.01	–	< 0.01	< 0.01	> 100	–
O=C(O)Cc1ccc2c(c1O)C(=O)c1c(ccc(CC(=O)O)c1O)C2=O	> 100	> 100	> 100	> 100	> 100	> 100	> 100	> 100	> 100	> 100	> 100	> 100	> 100	> 100	–	> 100	> 100	> 100
COC(=O)/C(=N\O)C(C(=O)C=C(C)C)C(=O)C(=O)Nc1ccccc1C (configuration not stated)	> 100	> 100	> 100	> 100	> 100	> 100	> 100	> 100	> 100	> 100	> 100	> 100	> 100	> 100	> 100	> 100	> 100	> 100
O=C(Nc1cc(Cl)c(Cl)cc1Cl)C(=O)C(C(=O)c1ccc2ccccc2c1)C1OC(=O)c2ccccc21 (configuration not stated)	81.5	44.7	31.2	88.1	33.8	15.2	24.4	–	–	37.3	43.5	31.9	> 100	69.2	26.9	30.9	23.6	36.6
COC1=CC(=O)c2ccccc2C1(C)C1=NC(C)(C)CO1 (configuration not stated)	> 100	> 100	> 100	> 100	> 100	> 100	> 100	> 100	> 100	> 100	> 100	–	> 100	> 100	> 100	> 100	> 100	> 100
C/C(CN1C(=O)c2ccccc2C1=O)=N\NS(=O)(=O)c1ccc(F)cc1	> 100	> 100	> 100	> 100	> 100	> 100	> 100	> 100	> 100	> 100	> 100	> 100	> 100	> 100	> 100	> 100	> 100	> 100
COC(=O)c1cc(C)n(NC(=O)OC(C)(C)C)c1C	> 100	> 100	> 100	> 100	> 100	> 100	> 100	> 100	> 100	> 100	> 100	> 100	–	> 100	> 100	> 100	> 100	> 100
CC(C)(C)C(=O)[CH-]C(=O)C(F)(F)C(F)(F)C(F)(F)F.CC(C)(C)C(=O)[CH-]C(=O)C(F)(F)C(F)(F)C(F)(F)F.[O-]CC1OC(O)C(O)C(O)C1O.[O-]CC1OC(O)C(O)C(O)C1O.[Ti+4]	> 100	> 100	> 100	> 100	> 100	> 100	> 100	–	> 100	> 100	> 100	> 100	> 100	> 100	> 100	> 100	> 100	> 100
COc1ccc(/C(Cl)=C/c2ccc(Cl)c(Cl)c2)cc1	83.6	> 100	–	44.9	–	63	50.3	99.7	> 100	47.5	79	–	47.9	54	> 100	56.8	> 100	61.8
N#C/C(=C\c1ccc(O)cc1O)C(N)=O	> 100	> 100	> 100	> 100	> 100	> 100	–	67.4	> 100	98.2	> 100	> 100	–	26.5	> 100	> 100	> 100	> 100
Cn1c(N)c(-c2c3ccccc3nc3ccccc23)c(=O)n(C)c1=O	> 100	> 100	> 100	> 100	> 100	> 100	> 100	–	> 100	> 100	–	> 100	–	> 100	> 100	> 100	> 100	> 100
CCOC(=O)c1cn2c([nH]c3ccccc32)c(C#N)c1=O	> 100	> 100	> 100	47.1	> 100	> 100	> 100	> 100	> 100	> 100	> 100	> 100	> 100	> 100	> 100	> 100	> 100	> 100
Nc1ccc(C(=O)NN2C(=O)C(Cl)C2c2cccc([N+](=O)[O-])c2)cc1 (configuration not stated)	> 100	30.8	30.6	41.4	35.7	34.5	34.3	35.6	38.6	37.9	41.6	37.7	–	35	37.1	35.6	39.3	47.7
CCCCCC(=O)Cc1cc(OC)cc2c1C(=O)Oc1cc(O)c(C(=O)O)c(CC(=O)CCCCC)c1O2	> 100	> 100	> 100	> 100	–	37.1	> 100	> 100	> 100	> 100	> 100	> 100	> 100	> 100	49.6	> 100	> 100	> 100
CO[C@H](c1ccccc1)[C@H](C)N(C)c1ccc2ccccc2c1C1=NC(C)(C)CO1	35.2	> 100	40.2	61.3	29.7	31	> 100	32.4	36.1	25.1	36	–	50.1	40.9	> 100	33	26.7	44.2
CC(C)c1cccc(C(C)C)c1NC1=CC(=O)C(=O)c2ccccc21	> 100	> 100	> 100	> 100	> 100	> 100	> 100	–	> 100	> 100	> 100	> 100	> 100	> 100	> 100	> 100	> 100	> 100
O=S(Cc1cc2c(cc1Br)OCO2)c1ccccc1 (configuration not stated)	> 100	> 100	59.4	57.4	> 100	> 100	> 100	> 100	> 100	> 100	> 100	> 100	–	> 100	> 100	> 100	> 100	> 100
COc1cccc(/C=C2\C(=O)N(C(=O)Cc3ccccc3)N=C2C)c1	> 100	–	> 100	> 100	> 100	> 100	> 100	> 100	> 100	> 100	> 100	> 100	> 100	> 100	–	> 100	> 100	> 100
CC1=NN(c2ccccc2)C(=O)C1=C1SCCCS1	> 100	> 100	66	41.9	> 100	> 100	> 100	> 100	> 100	> 100	> 100	> 100	34.5	29.3	39.7	> 100	> 100	88.4
O=C1C=C(Nc2ccccc2C(=O)CC(=O)C(=O)Nc2ccc(Cl)c(Cl)c2)c2ccccc2C1=O	> 100	> 100	> 100	–	> 100	> 100	20.4	–	> 100	> 100	> 100	> 100	> 100	> 100	62.2	29.8	> 100	–
CO[C@@]12CC(=O)/C(=C(O)\C=C\c3ccccc3)C(=O)[C@]1(OC)Cc1ccccc1O2	88.8	> 100	46.6	–	> 100	61.8	> 100	> 100	91.1	> 100	51.7	82.8	–	> 100	52.3	> 100	77.3	> 100
C1=c2ccccc2=C2C(=C(c3ccccc3)C(c3ccccc3)=NN2c2ccccc2)S1	> 100	> 100	> 100	> 100	> 100	> 100	> 100	> 100	> 100	> 100	> 100	> 100	–	> 100	> 100	> 100	> 100	> 100
